Test results taken from ChEMBL document CHEMBL3596163, “Discovery of imidazo[1,5-a]pyridines and -pyrimidines as potent and selective RORc inverse agonists” (Bioorg Med Chem Lett, 2015).
Values after ≈ are worked out from the molar mass of the structure shown.

What was measured:
[1] = biological target: T1, Nuclear receptor ROR-gamma (Homo sapiens, UniProt P51449); experiment: Inverse agonist activity at N-terminal 6xHis-tagged human RORc ligand binding domain (241 to 486) expressed in bacterial expression system assessed as inhibition of SRC1 co-activator peptide recruitment after 3 hrs by TR-FRET analysis; assay type: functional
T1 sequence (P51449 whole entry): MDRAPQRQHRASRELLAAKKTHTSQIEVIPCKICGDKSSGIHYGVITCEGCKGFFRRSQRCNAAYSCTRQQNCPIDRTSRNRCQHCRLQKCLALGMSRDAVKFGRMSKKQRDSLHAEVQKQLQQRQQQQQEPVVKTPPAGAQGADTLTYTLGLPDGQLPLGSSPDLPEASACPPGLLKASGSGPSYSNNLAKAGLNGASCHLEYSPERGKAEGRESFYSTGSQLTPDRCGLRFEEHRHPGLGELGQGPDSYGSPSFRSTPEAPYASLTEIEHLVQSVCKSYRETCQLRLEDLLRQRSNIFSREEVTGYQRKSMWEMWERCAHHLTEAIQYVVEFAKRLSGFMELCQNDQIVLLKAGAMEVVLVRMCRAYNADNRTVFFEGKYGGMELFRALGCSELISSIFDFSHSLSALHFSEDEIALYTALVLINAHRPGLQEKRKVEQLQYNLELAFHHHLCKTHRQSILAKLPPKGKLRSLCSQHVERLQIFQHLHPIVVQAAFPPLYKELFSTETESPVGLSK

[2] = biological target: T2, Peroxisome proliferator-activated receptor gamma (Homo sapiens, UniProt P37231); experiment: Displacement of fluormone PPARgamma green from GST-tagged human PPARgamma-LBD after 2 hrs by fluorescence polarization assay
T2 sequence (P37231 whole entry): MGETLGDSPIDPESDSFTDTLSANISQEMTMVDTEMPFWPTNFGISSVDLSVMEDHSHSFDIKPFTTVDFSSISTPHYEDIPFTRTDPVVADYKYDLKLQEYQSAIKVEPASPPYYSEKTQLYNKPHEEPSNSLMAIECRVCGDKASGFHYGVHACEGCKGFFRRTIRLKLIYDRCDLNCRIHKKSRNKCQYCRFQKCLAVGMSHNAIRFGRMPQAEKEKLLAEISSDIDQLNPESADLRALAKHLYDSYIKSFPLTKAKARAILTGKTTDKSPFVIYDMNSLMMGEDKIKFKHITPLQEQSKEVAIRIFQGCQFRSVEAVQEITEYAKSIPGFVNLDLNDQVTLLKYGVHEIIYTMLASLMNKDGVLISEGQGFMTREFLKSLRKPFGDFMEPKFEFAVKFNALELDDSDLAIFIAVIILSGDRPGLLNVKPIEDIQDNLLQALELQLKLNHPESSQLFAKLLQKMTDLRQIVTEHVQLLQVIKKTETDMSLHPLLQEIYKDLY

[3] = biological target: T1, Nuclear receptor ROR-gamma; experiment: Inverse agonist activity at GAL4-fused human RORc expressed in HEK293T cells assessed as suppression of basal transcriptional activity after 20 hrs by dual-glo luciferase reporter gene assay; assay type: functional, cell-based, HEK-293T
[4] = Plasma protein binding in human at 5 uM after 4 hrs by equilibrium dialysis method; assay type: ADME, cell-free; conditions: read-out: PPB
[5] = Plasma protein binding in rat at 5 uM after 4 hrs by equilibrium dialysis method; assay type: ADME, cell-free; conditions: read-out: PPB
[6] = Apparent permeability from apical to basolateral side in MDCK cells at 2 uM by LC-MS/MS analysis; assay type: ADME, cell-based, Canis lupus familiaris; conditions: dog
[7] = Apparent permeability from basolateral to apical side in MDCK cells at 2 uM by LC-MS/MS analysis; assay type: ADME, cell-based, Canis lupus familiaris; conditions: dog
[8] = Kinetic aqueous solubility of the compound in PBS buffer at 23 degC after 24 hrs by LC/CLND analysis; assay type: physicochemical; conditions: read-out: Kinetic_solubility
[9] = tested on: MDCK; experiment: Efflux ratio of apparent permeability from apical to basolateral side over basolateral to apical side in MDCK cells at 2 uM by LC-MS/MS analysis; assay type: ADME, cell-based, Canis lupus familiaris; conditions: dog
[10] = Plasma clearance in Sprague-Dawley rat at 0.5 mg/kg, iv; assay type: ADME, organism-based
[11] = Volume of distribution in Sprague-Dawley rat at 0.5 mg/kg, iv; assay type: ADME, organism-based; conditions: in vivo
[12] = Cmax in Sprague-Dawley rat at […], po; assay type: ADME, organism-based; set-up: dose 1.5 mg/kg, route oral; conditions: in vivo
[13] = AUC in Sprague-Dawley rat at […], po; assay type: ADME, organism-based; conditions: in vivo
[14] = Half life in Sprague-Dawley rat at 0.5 mg/kg, iv; assay type: ADME, organism-based; conditions: in vivo
[15] = Oral bioavailability in Sprague-Dawley rat at […]; assay type: ADME, organism-based; conditions: in vivo

## O=C(O)c1ccc(-c2nc(C(=O)c3c(Cl)cccc3C(F)(F)F)n3ccccc23)c(F)c1
[1]
  EC50: 9 nM
[2]
  IC50: 320 nM
[3]
  EC50: 10 nM

## O=C(O)c1ccc(-c2nc(C(=O)c3c(Cl)cccc3C(F)(F)F)n3c2CCCC3)c(F)c1
[1]
  EC50: 32 nM
[2]
  IC50: 760 nM
[3]
  EC50: 36 nM

## O=C(O)c1ccc(-c2nc(C(=O)c3c(Cl)cccc3C3CC3)n3c2CCCC3)c(F)c1
[1]
  EC50: 27 nM
[2]
  IC50: 1300 nM
[3]
  EC50: 26 nM

## O=C(O)c1ccc(-c2nc(C(=O)c3c(Cl)cccc3C(F)(F)F)n3ccccc23)cc1O
[4]
  fraction unbound at 4 h, 5 µM: < 0.01
[5]
  fraction unbound at 4 h, 5 µM: < 0.01
[6]
  Papp A→B at 2 µM: 12 ×10⁻⁶ cm/s
[7]
  Papp B→A at 2 µM: 10 ×10⁻⁶ cm/s
[8]
  solubility kinetic at 24 h: 86 µM (≈ 39.6 µg/mL)
[9]
  Ratio: < 2
[10]
  clearance: 130 mL/min/kg
[11]
  Vd: 1.2 L/kg
[12]
  Cmax: 70 nM
[13]
  AUC: 0.25 µM·h
[14]
  half-life: 12 min
[15]
  bioavailability: 40%
[1]
  EC50: 2 nM
[2]
  IC50: 650 nM
[3]
  EC50: 4 nM

## O=C(O)c1ccc(-c2nc(C(=O)c3c(Cl)cccc3C3CC3)n3cccnc23)cc1O
[4]
  fraction unbound at 4 h, 5 µM: 0.01
[5]
  fraction unbound at 4 h, 5 µM: 0.01
[6]
  Papp A→B at 2 µM: 8 ×10⁻⁶ cm/s
[7]
  Papp B→A at 2 µM: 15 ×10⁻⁶ cm/s
[8]
  solubility kinetic at 24 h: 45 µM (≈ 19.5 µg/mL)
[9]
  Ratio: < 2
[1]
  EC50: 2 nM
[2]
  IC50: 3400 nM
[3]
  EC50: 13 nM
